Reference: patent publication US7879835B2 (Korea Research Institute of Chemical Technology, priority 2004, dated 2011)

Tests used:
[1] = test system: osteoclast (TRAP-positive multinuclear cell) formation; experiment: Inhibitory effect on osteoclast formation (TRAP staining); type: cell-based, mice; conditions: compared to control; for inhibition at 0.1 µM / inhibition at 0.3 µM / inhibition at 1 µM / inhibition at 3 µM: Mus musculus, Osteoclast, read-out: Osteoclast formation inhibitory effects (%); for inhibition at 0.1 µM: 0.1 μM (Table 4b); for inhibition at 0.3 µM: 0.3 μM (Table 4b); for inhibition at 1 µM: 1 μM (Table 4b); for inhibition at 3 µM: 3 μM (Table 4b); for Osteoclast formation inhibitory effects (%): 8 days culture with M-CSF and RANKL
Procedure: The inhibitory activities of the alpha-arylmethoxyacrylate derivatives prepared in the above Examples on the proliferation of osteoclasts were examined as follows.
First, a bone marrow sample containing osteoclast pregenitor cells was isolated as follows. After sacrificing 7 to 9 week-old female mice by cervical dislocation, femur and tibia were excised aseptically while removing soft tissues attached thereto, After cutting both ends of the long bones, 1 ml of an enzyme solution containing 0.1% collagenase (Gibco), 0.05% trypsin and 0.5 mM EDTA (Gibco) was injected into the bone marrow cavity at one end using a syringe with a 26-gauge needle, and the bone marrow was then collected. After stirring the recovered bone marrow for 30 min, the precipitated bone marrow cells were collected, and cultured in α-minimum essential medium (α-MEM) supplemented with 10% FBS for 24 hrs. Then, non-adherent cells, which are osteoclast pregenitors, were aliquoted onto a culture plate at a density of 2×10^5 cells per well, and cultured for 8 days in α-MEM supplemented with 20 ng/ml of macrophage-colony stimulating factor (M-CSF, Peprotech, USA), 30 ng/ml RANKL (Peprotech, USA), and 0.3, 1.0 or 3 μM of the compounds of the Examples. Control cells were cultured at the same condition except not adding the compounds of the Examples.
After cell culture for 8 days, the adherent cells were washed with PBS and fixed with citrate-acetate-formaldehyde for 5 min. The fixed cells were incubated at 37° C. for 1 hr in acetate buffer (pH 5.0) containing naphthol AS-BI phosphate, fast Garnet GBC solution and 7 mM tartrate buffer (pH 5.0) to conduct TRAP (tartrate-resistant acid phosphatase) staining.

osteoclasts = experiment: Inhibitory effect on resorption activity of osteoclast (resorption pit area on calcium phosphate-coated plate); type: cell-based, mice; conditions: compared to control
Procedure: After finishing culture, the plate was washed with distilled water, and 50 μl/well of 5% sodium hypochlorite was added to the plate. The plate was let alone for 5 min, washed again with distilled water to remove the adherent cells, and dried at room temperature. Then, the area of formed resorption pits was calculated by means of Image Pro Plus software (Media Cybernetics Ver. 3.0).

Compound: CO/C=C(/C(=O)OC)c1ccccc1COc1ccc(NCC(C)C)cc1F [Compound No. 425, (E)-methyl-2-[2-((4-(N-isobutylamino)-2-fluorophenoxy)methyl)phenyl]-3-methoxyacrylate]
- inhibition at 0.1 µM [1]: 0%
- inhibition at 0.3 µM [1]: 51%
- inhibition at 1 µM [1]: 100%
- inhibition at 3 µM [1]: 100%

Compound: CO/C=C(/C(=O)OC)c1ccccc1COc1ccc(C(C)F)cc1 (stereo not shown) [compound 170]
- Reduction (%) of the resorption pit area of osteoclasts (osteoclasts; 0.3 uM): 0%
- Reduction (%) of the resorption pit area of osteoclasts (osteoclasts; 1 uM): 100%
- Reduction (%) of the resorption pit area of osteoclasts (osteoclasts; 3 uM): 100%
- Osteoclast formation inhibitory effects (%) ([1]; 0.3 μM): 81%
- Osteoclast formation inhibitory effects (%) ([1]; 1.0 μM): 100%
- Osteoclast formation inhibitory effects (%) ([1]; 3.0 μM): 100%

Compound: CO/C=C(/C(=O)OC)c1ccccc1COc1ccc(OC2CCCC2)cc1 [compound 172]
- Reduction (%) of the resorption pit area of osteoclasts (osteoclasts; 0.3 uM): 90%
- Reduction (%) of the resorption pit area of osteoclasts (osteoclasts; 1 uM): 100%
- Reduction (%) of the resorption pit area of osteoclasts (osteoclasts; 3 uM): 100%
- Osteoclast formation inhibitory effects (%) ([1]; 0.3 μM): 90%
- Osteoclast formation inhibitory effects (%) ([1]; 1.0 μM): 100%
- Osteoclast formation inhibitory effects (%) ([1]; 3.0 μM): 100%

Compound: CO/C=C(/C(=O)OC)c1ccccc1COc1ccc(OCC(C)C)cc1 [compound 174]
- Reduction (%) of the resorption pit area of osteoclasts (osteoclasts; 0.3 uM): 100%
- Reduction (%) of the resorption pit area of osteoclasts (osteoclasts; 1 uM): 100%
- Reduction (%) of the resorption pit area of osteoclasts (osteoclasts; 3 uM): 100%
- Osteoclast formation inhibitory effects (%) ([1]; 0.3 μM): 35%
- Osteoclast formation inhibitory effects (%) ([1]; 1.0 μM): 100%
- Osteoclast formation inhibitory effects (%) ([1]; 3.0 μM): 100%

Compound: CCC(C)Oc1ccc(OCc2ccccc2/C(=C\OC)C(=O)OC)cc1 (stereo not shown) [compound 175]
- Reduction (%) of the resorption pit area of osteoclasts (osteoclasts; 0.3 uM): 99%
- Reduction (%) of the resorption pit area of osteoclasts (osteoclasts; 1 uM): 100%
- Reduction (%) of the resorption pit area of osteoclasts (osteoclasts; 3 uM): 100%
- Osteoclast formation inhibitory effects (%) ([1]; 0.3 μM): 14%
- Osteoclast formation inhibitory effects (%) ([1]; 1.0 μM): 100%
- Osteoclast formation inhibitory effects (%) ([1]; 3.0 μM): 100%

Compound: C=CCCOc1ccc(OCc2ccccc2/C(=C\OC)C(=O)OC)cc1 [compound 178]
- Reduction (%) of the resorption pit area of osteoclasts (osteoclasts; 0.3 uM): 97%
- Reduction (%) of the resorption pit area of osteoclasts (osteoclasts; 1 uM): 100%
- Reduction (%) of the resorption pit area of osteoclasts (osteoclasts; 3 uM): 100%
- Osteoclast formation inhibitory effects (%) ([1]; 0.3 μM): 89%
- Osteoclast formation inhibitory effects (%) ([1]; 1.0 μM): 100%
- Osteoclast formation inhibitory effects (%) ([1]; 3.0 μM): 100%

Compound: CCOc1ccc(OCc2ccccc2/C(=C\OC)C(=O)OC)cc1 [compound 183]
- Reduction (%) of the resorption pit area of osteoclasts (osteoclasts; 0.3 uM): 100%
- Reduction (%) of the resorption pit area of osteoclasts (osteoclasts; 1 uM): 100%
- Reduction (%) of the resorption pit area of osteoclasts (osteoclasts; 3 uM): 100%
- Osteoclast formation inhibitory effects (%) ([1]; 0.3 μM): 96%
- Osteoclast formation inhibitory effects (%) ([1]; 1.0 μM): 100%
- Osteoclast formation inhibitory effects (%) ([1]; 3.0 μM): 100%

Compound: CCCOc1ccc(OCc2ccccc2/C(=C\OC)C(=O)OC)cc1 [compound 192]
- Reduction (%) of the resorption pit area of osteoclasts (osteoclasts; 0.3 uM): 100%
- Reduction (%) of the resorption pit area of osteoclasts (osteoclasts; 1 uM): 100%
- Reduction (%) of the resorption pit area of osteoclasts (osteoclasts; 3 uM): 100%
- Osteoclast formation inhibitory effects (%) ([1]; 0.3 μM): 68%
- Osteoclast formation inhibitory effects (%) ([1]; 1.0 μM): 100%
- Osteoclast formation inhibitory effects (%) ([1]; 3.0 μM): 100%

Compound: CCCCCCCOc1cccc(OCc2ccccc2/C(=C\OC)C(=O)OC)c1 [compound 201]
- Reduction (%) of the resorption pit area of osteoclasts (osteoclasts; 0.3 uM): 100%
- Reduction (%) of the resorption pit area of osteoclasts (osteoclasts; 1 uM): 100%
- Reduction (%) of the resorption pit area of osteoclasts (osteoclasts; 3 uM): 100%
- Osteoclast formation inhibitory effects (%) ([1]; 0.3 μM): 12%
- Osteoclast formation inhibitory effects (%) ([1]; 1.0 μM): 70%
- Osteoclast formation inhibitory effects (%) ([1]; 3.0 μM): 100%

Compound: CCCCCCCCc1cccc(OCc2ccccc2/C(=C\OC)C(=O)OC)c1 [compound 229]
- Reduction (%) of the resorption pit area of osteoclasts (osteoclasts; 0.3 uM): 0.00%
- Reduction (%) of the resorption pit area of osteoclasts (osteoclasts; 1 uM): 100%
- Reduction (%) of the resorption pit area of osteoclasts (osteoclasts; 3 uM): 100%
- Osteoclast formation inhibitory effects (%) ([1]; 0.3 μM): 100%
- Osteoclast formation inhibitory effects (%) ([1]; 1.0 μM): 100%
- Osteoclast formation inhibitory effects (%) ([1]; 3.0 μM): 100%

Compound: CO/C=C(/C(=O)OC)c1ccc(Cl)cc1COc1cccc(CO)c1 [compound 262]
- Reduction (%) of the resorption pit area of osteoclasts (osteoclasts; 0.3 uM): 93%
- Reduction (%) of the resorption pit area of osteoclasts (osteoclasts; 1 uM): 100%
- Reduction (%) of the resorption pit area of osteoclasts (osteoclasts; 3 uM): 100%
- Osteoclast formation inhibitory effects (%) ([1]; 0.3 μM): 93%
- Osteoclast formation inhibitory effects (%) ([1]; 1.0 μM): 100%
- Osteoclast formation inhibitory effects (%) ([1]; 3.0 μM): 100%

Compound: CO/C=C(/C(=O)OC)c1ccccc1COc1cccc(N2CCOCC2)n1 [compound 348]
- inhibition at 0.3 µM [1]: 24%
- inhibition at 1 µM [1]: 99%
- inhibition at 3 µM [1]: 100%

Compound: CO/C=C(/C(=O)OC)c1ccccc1COc1cccc(N2CCOCC2)c1 [compound 349]
- inhibition at 0.1 µM [1]: 2%
- inhibition at 0.3 µM [1]: 53%
- inhibition at 1 µM [1]: 100%
- inhibition at 3 µM [1]: 100%

Compound: CO/C=C(/C(=O)OC)c1ccccc1COc1ccc(NCC(C)C)cc1 [compound 361]
- inhibition at 1 µM [1]: 95%
- inhibition at 3 µM [1]: 100%

Compound: C=CCN(CC=C)c1ccc(OCc2ccccc2/C(=C\OC)C(=O)OC)cc1F [compound 367]
- inhibition at 1 µM [1]: 87%
- inhibition at 3 µM [1]: 100%

Compound: CO/C=C(/C(=O)OC)c1ccccc1COc1ccc(NCC2CC2)c(F)c1 [compound 372]
- inhibition at 1 µM [1]: 91%
- inhibition at 3 µM [1]: 100%

Compound: CO/C=C(/C(=O)OC)c1ccccc1COc1cccc(NC2CCCC2)c1 [compound 380]
- inhibition at 0.3 µM [1]: 8%
- inhibition at 1 µM [1]: 51%
- inhibition at 3 µM [1]: 100%

Compound: C=CCNc1cccc(OCc2ccccc2/C(=C\OC)C(=O)OC)c1 [compound 381]
- inhibition at 0.3 µM [1]: 5%
- inhibition at 1 µM [1]: 67%
- inhibition at 3 µM [1]: 100%

Compound: CO/C=C(/C(=O)OC)c1ccccc1COc1cccc(NCCC(C)C)c1 [compound 383]
- inhibition at 0.3 µM [1]: 6%
- inhibition at 1 µM [1]: 94%
- inhibition at 3 µM [1]: 100%

Compound: CO/C=C(/C(=O)OC)c1ccc(Cl)cc1COc1cccc(N2CCCCC2)c1 [compound 387]
- inhibition at 0.1 µM [1]: 1%
- inhibition at 0.3 µM [1]: 100%
- inhibition at 1 µM [1]: 100%
- inhibition at 3 µM [1]: 100%

Compound: CO/C=C(/C(=O)OC)c1ccc(Cl)cc1COc1cccc(N(C)c2ccccc2)c1 [compound 390]
- inhibition at 0.1 µM [1]: 2%
- inhibition at 0.3 µM [1]: 94%
- inhibition at 1 µM [1]: 99%
- inhibition at 3 µM [1]: 100%

Compound: CO/C=C(/C(=O)OC)c1ccccc1COc1cccc(N2CCCC2)c1 [compound 392]
- inhibition at 0.3 µM [1]: 2%
- inhibition at 1 µM [1]: 95%
- inhibition at 3 µM [1]: 100%

Compound: CO/C=C(/C(=O)OC)c1ccccc1COc1ccc(N2CCCC2)cn1 [compound 397]
- inhibition at 0.3 µM [1]: 22%
- inhibition at 1 µM [1]: 100%
- inhibition at 3 µM [1]: 100%

Compound: CO/C=C(/C(=O)OC)c1ccccc1COc1ccc(N(C)c2ccccc2)cc1 [compound 400]
- inhibition at 0.1 µM [1]: 0%
- inhibition at 0.3 µM [1]: 53%
- inhibition at 1 µM [1]: 99%
- inhibition at 3 µM [1]: 100%

Compound: CO/C=C(/C(=O)OC)c1ccccc1COc1cccc(N2CCN(C(=O)OC(C)(C)C)CC2)c1 [compound 406]
- inhibition at 0.1 µM [1]: 41%
- inhibition at 0.3 µM [1]: 100%
- inhibition at 1 µM [1]: 100%
- inhibition at 3 µM [1]: 100%

Compound: CO/C=C(/C(=O)OC)c1ccccc1COc1ccc(N2CCOCC2)cc1F [compound 408]
- inhibition at 0.1 µM [1]: 0%
- inhibition at 0.3 µM [1]: 52%
- inhibition at 1 µM [1]: 100%
- inhibition at 3 µM [1]: 100%

Compound: CO/C=C(/C(=O)OC)c1ccccc1COc1cccc(N2CCCCC2)n1 [compound 413]
- inhibition at 0.3 µM [1]: 11%
- inhibition at 1 µM [1]: 100%
- inhibition at 3 µM [1]: 100%

Compound: CO/C=C(/C(=O)OC)c1ccccc1COc1cccc(N(C)c2ccccc2)n1 [compound 414]
- inhibition at 0.3 µM [1]: 32%
- inhibition at 1 µM [1]: 100%
- inhibition at 3 µM [1]: 100%

Compound: CO/C=C(/C(=O)OC)c1ccccc1COc1ccc(N(C)c2ccccc2)c(F)c1 [compound 417]
- inhibition at 0.3 µM [1]: 24%
- inhibition at 1 µM [1]: 97%
- inhibition at 3 µM [1]: 100%

Compound: CO/C=C(/C(=O)OC)c1ccccc1COc1ccc(N2CCCC2)c(F)c1 [compound 418]
- inhibition at 0.3 µM [1]: 11%
- inhibition at 1 µM [1]: 81%
- inhibition at 3 µM [1]: 100%

Compound: C=CCN(CC=C)c1ccc(OCc2ccccc2/C(=C\OC)C(=O)OC)c(F)c1 [compound 421]
- inhibition at 0.3 µM [1]: 14%
- inhibition at 1 µM [1]: 100%
- inhibition at 3 µM [1]: 100%

Compound: CO/C=C(/C(=O)OC)c1ccccc1COc1ccc(N(CC2CC2)CC2CC2)cc1F [compound 422]
- inhibition at 0.1 µM [1]: 11%
- inhibition at 0.3 µM [1]: 98%
- inhibition at 1 µM [1]: 100%
- inhibition at 3 µM [1]: 100%

Compound: CO/C=C(/C(=O)OC)c1ccccc1COc1ccc(NCC2CC2)cc1F [compound 423]
- inhibition at 0.1 µM [1]: 0%
- inhibition at 0.3 µM [1]: 51%
- inhibition at 1 µM [1]: 100%
- inhibition at 3 µM [1]: 100%

Compound: CO/C=C(/C(=O)OC)c1ccccc1COc1ccc(N(C)CC2CC2)cc1F [compound 424]
- inhibition at 0.1 µM [1]: 0%
- inhibition at 0.3 µM [1]: 92%
- inhibition at 1 µM [1]: 100%
- inhibition at 3 µM [1]: 100%
